The subject of assay [1] is convulsions caused by strychnine. Nature of the assay: Strychnine convulsions in the rat, intraperitoneal. The settings on record: for ED50: Rattus norvegicus, ip, read-out: ED50 Strychnine (rat ip). In kind it is in vivo, rat (male CD, Charles River). On the procedure:
(§1) In the case of the male rat CD (Charles River) of 200-230 g, the convulsions are caused by the subcutaneous injection either of 500 mg/kg of isoniazide (INH) or of 1.5 mg/kg of a strychnine in the form of the sulfate. According to the protocol described by J. L. Costa et al. (Adv. Biochem., Pharmacol., 14, 113, 1975), the product to be tested is administered intraperitoneally 25 minutes after the isoniazide and 5 minutes before the strychnine. The number of animals having shown convulsions is registered during an observation period of 60 minutes after the injection of the isoniazide and 25 minutes after the injection of the strychnine.
(§2) The results obtained are collected in the following Table 1, wherein there are also given, for comparison, the results provided by two reference anticonvulsants (valproic acid, phenobarbital).

Assay [2] deals with convulsions caused by isoniazide (INH). Kind of assay: animal or person. In kind it is in vivo, rat (male CD, Charles River). The settings on record: for ED50: 25 min, rat, ip, 25 minutes after 500 mg/kg sc isoniazide, dose protecting 50% of animals, read-out: ED50 I.N.H. (rat ip). Here is the method:
as §1

Assay [3] relates to convulsions caused by supramaximal electric shock (ESM). Nature of the assay: Supramaximal electric shock (ESM) convulsions in the mouse, oral. Format: in vivo, mouse (male CD1, Charles River). The conditions noted are these: 1.5 h, read-out: ED50 E.S.M. (mouse orally). Here is the method:
These effects have been shown in vivo on the mouse and the rat. In the case of the mouse, the product is administered orally, in increasing doses, to batches of 10 male mice CD1 (Charles River) of 20-27 g, 90 minutes before exposure to a supramaximal electric shock (ESM), according to the method described by G. M. Everett and R. K. Richards (J. Pharmacol, Exptl. Therap. 81, 402, 1944).
as §2

Another assay relates to male mouse CD1. Kind of assay: Test of the 4 plates (anxiolytic activity). In kind it is in vivo, Charles River). The conditions noted are these: 90 minutes before test, vs control group. Here is the method: The anxiolytic activity of the product has been shown on the mouse, by use of the method called the test of the 4 plates, described by J. R. Boissier et al. (Europ. J. Pharmacol., 4, 145, 1968).
90 minutes after oral administration of the product, the animal undergoing the test (male mouse CD1 Charles River of 20-27 g) is placed in a box the base or floor of which is formed of four separated metal plates. Each time the animal passes from one plate to another, all the plates are electrified. The animal rapidly associates displacement and an electric shock and stays immovable on one of the plates. The number of crossings effected by the mouse in 2 minutes is thus determined.
The animals are divided into groups of 20 mice, the control group receiving only the vehicle. The results obtained for the treated groups are expressed by a percentage increase of the number of passages with respect to the control group and are collected in Table 2 below.

Molecules are shown by their SMILES. Read-outs that look alike come from different tables or passages of the source.

On to `Nc1nc2ccc(OC(F)(F)F)cc2s1` [2-Amino-6-trifluoromethoxy-benzothiazole], for which the ED50 in assay [1] was found to be 8.4 mg/kg; in assay [2], 2.2 mg/kg; in assay [3] (mouse, oral, 90 minutes before supramaximal electric shock, dose protecting 50% of animals), 10 mg/kg. Besides, in assay [2] (INH versus strychnine convulsions), the “doses inhibiting INH convulsions, times less than those necessary to inhibit strychnine convulsions” value stood at 4 times. In addition, the “% increase of the number of passages” value in the assay with male mouse CD1 (5 mg/kg orally) came out at 50%; in the assay with male mouse CD1 (10 mg/kg orally) it was 61%; in the assay on male mouse CD1 (20 mg/kg orally), 100%; in the assay with male mouse CD1 (25 mg/kg orally (first line printed 25)), 162%; with male mouse CD1 (25 mg/kg orally (second line printed 25)) it was 215%.

As to `CCC1(c2ccccc2)C(=O)NC(=O)NC1=O` [Phenobarbital], the ED50 is 33 mg/kg in assay [1]; 16 mg/kg in assay [2]; 26 mg/kg in assay [3] (Mus musculus, po).

As to `CCCC(CCC)C(=O)O` [Valproic acid], in assay [1] (rat, inactive at 600 (mg/kg)), the “ED50 Strychnine (rat ip), result in words” value is “inactive”. In addition, the ED50 was 180 mg/kg in assay [2] and 450 mg/kg in assay [3] (Mus musculus, po).

By ED50 is commonly meant the dose at which the effect has come halfway, by size or by number of responders.

Source of the values: patent US4370338A (priority 1980, dated 1983).
